US12419832B2, “Intratumoral delivery of bortezomib” (Cognos Therapeutics, Inc., priority 2018, dated 2025)
pIC50: −log10 of the molar value. “Also recorded” adds a separate entry of the source. Read-outs that look alike come from different tables or passages of the source.

Experiments:
[1] = test system: U251 glioma cells implanted intracranially; experiment: Orthotopic intracranial glioma model, U251, survival; format: in vivo, athymic nude mice; conditions: for median survival time: IT pump, control 23 days
Description: (§1) FIGS. 3A-3B. […] Human glioma cells U251 (FIG. 3A) or U87 (FIG. 3B) were implanted intracranially; subsequently, mice were given bortezomib (36 μg total) (square) or vehicle (circle) IV. The brain tumor size was monitored by optical imaging weekly, and animal survival data were analyzed by Kaplan-Meier plot.
FIG. 4. Bortezomib (BZM) administered intratumorally (IT) is effective in increasing survival. Glioma cells (U251) were implanted intracranially. After 10 days, animals were treated IT with vehicle; bortezomib IV (36 μg total); bortezomib IT (low dose, 0.36 μg total); bortezomib IT (medium dose, 1.2 μg total); and bortezomib IT (high dose, 3.6 μg total). […] CED=convection-enhanced delivery.
(§2) Briefly, athymic nude mice were anesthetized with ketamine and xylazine (10 mg/kg) and fixed into a stereotactic head frame (Harvard Apparatus). A 1.5-mm bur hole was drilled 1 mm anterior to the coronal suture on the right hemisphere and 2 mm lateral from the midline. A Hamilton syringe fixed onto the head frame was used to inject human glioma cells (2×10^5 cells/5 μl) into the right frontal lobe of the brain. The skin incision was then closed with 4-0 silk thread. The appropriate medications were provided to reduce pain.
(§3) Seven to 10 days after tumor cell implantation, imaging was used to confirm brain tumor formation. Briefly, mice were anesthetized using 2% isoflurane gas and injected intravenously (IV) with 50 mg/kg of D-Luciferin (Perkin Elmer) and placed into the IVIS Spectrum (Caliper Life Sciences). Analysis was performed with Living Image software (Caliper Life Sciences), in which circular regions of interest drawn over the tumor site were used, and results were reported as total flux (photons/second). Based on total flux, animals were randomly divided into experimental groups.
Once tumors were identified, approximately 7 days after intracranial tumor cell implantation, Alzet mini-osmotic pumps were filled with the desired dose of reagent and implanted. A plastic tube primed with the agent was used to connect the infusion kit to the brain. The assembled delivery system was stored at 4° C. overnight before implantation. Bortezomib was delivered into the tumor using the Alzet mini-osmotic pumps.
To anchor the pump to the animal, an incision was made in the scalp alongside the previous surgical scar. The caudal edge of the incision was pulled, and the connective tissues were separated. Subsequently a subcutaneous tunnel was prepared. The Alzet mini-osmotic pump was pushed backward to adjust the location of the brain infusion kit directly above the hole in the skull that had been previously drilled for tumor cell implantation. The infusion kit (plastic tubing) was gently inserted into the formed tumor. The plastic platform end was fixed onto the skull by using instant super glue. The area around the skin incision was sterilized and sutured with 4-0 silk thread. The contents of the Alzet mini-osmotic pump were released into the tumor at a rate of […]. The treatment groups (6 mice per group) were listed as the following: 1) pump-administered vehicle (saline); 2) bortezomib (0.3 mg/kg=36 μg in total) given by intravenous injection; 3) low-dose bortezomib (0.003 mg/kg=0.36 μg in total) intracranial pump delivery; 4) medium-dose bortezomib (0.01 mg/kg=1.2 μg in total) intracranial pump delivery; and 5) high-dose bortezomib (0.03 mg/kg=3.6 μg in total) intracranial pump delivery. In summary, bortezomib was administered for 14 days, either IV at 0.3 mg/kg twice weekly (total 4 injections in 14 days), or continuously into the intracranial tumor bed by using the Alzet mini-osmotic pump. After the treatment was completed (14 days), animals were left untreated until the appearance of neurological and behavioral abnormalities requiring euthanasia. Animals treated with vehicle received saline by Alzet mini-osmotic pump.
Survival data were plotted using the Kaplan-Meier method. […]

[2] = test system: glioma stem cells and normal stem cells; conditions: cited from earlier work
[3] = test system: malignant gliomas / GBM; conditions: cited from earlier work
[4] = test system: human glioma cells (U251, LN229, U87); experiment: MTT cytotoxicity assay on glioma cells; format: cell-based; conditions: Glioma cell, 3 cell lines (U251, LN229, U87), 48 hours, read-out: median inhibitory concentrations (IC50)
Description: Glioma cells (U251, LN229, U87) were treated with bortezomib (0-25 nM) for 48 hours. Cell death was evaluated using the MTT assay. O.D.=optical density.
Human glioma cells (U87, U251, and LN229) were cultured in DMEM, supplemented with 10% fetal bovine serum and 1% penicillin-streptomycin, and incubated in 5% CO2. Bortezomib (Velcade) was purchased from the University of Southern California/Norris Comprehensive Cancer Center pharmacy. Bortezomib has been approved by the FDA for clinical use. The sterile 14-day Alzet mini-osmotic pump (model 2002) was used in these experiments. The Alzet mini-osmotic pump has a reservoir volume of 200 μl and a delivery rate of 0.5 μl/hour. The brain infusion kit, which includes the pump and distribution tubing, was purchased from DURECT Corporation.
Glioma cells (5000 cells/well) were seeded in 96-well plates. After 24 hours, bortezomib was added to the cells at different concentrations, and the cells were incubated for 48 hours. The monotetrazolium (MTT) assay was performed according to the manufacturer's protocol (Calbiochem EMD, Millipore). Absorbance was measured using a microtiter plate reader (Molecular Devices) at 490 nm. Percent viability was calculated relative to untreated control cells. All experiments were performed in triplicate.

[5] = test system: U87 glioma cells implanted subcutaneously; experiment: Subcutaneous glioma xenograft tumor model, U87; format: in vivo, athymic nude mice; conditions: 0.3 mg/kg (36 μg total), vs vehicle
Description: (§4) FIGS. 2A-2B. […] FIG. 2A: Glioma cells (U251) were implanted subcutaneously into athymic nu/nu mice. Fourteen days later, intravenous treatment was initiated: vehicle treatment (circle); bortezomib (36 μg total) (square). Subsequently animals were left untreated for 14 days. […] FIG. 2B: Glioma cells (U87) were implanted subcutaneously in athymic nude mice. Bortezomib was administered at a total dose of 36 μg by intravenous injection beginning on Day 30 post-implantation.
(§5) The animal protocol was approved by the institutional animal care and use committee of the University of Southern California. All mice were maintained in a pathogen-free environment throughout the experiment. For the subcutaneous tumor xenograft model, 5×10^5 human glioma cells (U87, U251, and LN229) suspended in a volume of 50 μl phosphate-buffered saline were implanted into the right flank of 30 athymic nude mice (Harlan, Inc.). Tumors were palpable approximately 2-3 weeks post-implantation. The animals were divided randomly into 5 groups of 6 mice, and treatment was initiated according to protocol.

[6] = test system: U251 glioma cells implanted subcutaneously; experiment: Subcutaneous glioma xenograft tumor model, U251; format: in vivo, athymic nu/nu mice; conditions: IV 0.3 mg/kg twice per week (36 μg total), vs vehicle
Description: as §4, §5

[7] = test system: U87 glioma cells implanted intracranially; experiment: Orthotopic intracranial glioma model, U87, survival; format: in vivo, athymic nude mice; conditions: IV 36 μg total
Description: as §1, §2
as §3, with “Based on total flux, animals were randomly divided into experimental groups.” left out

[8] = Dose escalation, intracerebral osmotic mini-pump, normal nontumor-bearing mice
Description: The doses of bortezomib used in these experiments were determined by injecting escalating doses of the drug intracerebrally (delivered by osmotic mini-pump) into normal, nontumor-bearing mice. […] In FIG. 4, treatment groups (n=6) were vehicle (saline-filled pump); bortezomib given IV (36 μg in total); bortezomib IT (low dose, 0.36 μg); bortezomib IT (medium dose, 1.2 μg); and bortezomib IT (high dose, 3.6 μg).

[9] = test system: 20S proteasome; experiment: 20S proteasome activity assay on lysates of tumor-bearing brains; format: in vivo, mice; conditions: IT 3.6 μg total, Alzet pump
Description: FIG. 5. […] Animals were treated by intratumorally administration of bortezomib (3.6 μg total) using the Alzet pump. After 5, 7 or 10 days, animals were euthanized, tumor-bearing brains were harvested, and lysates prepared for the proteasome activity assay. Control values were obtained from vehicle-treated brains at 5, 7, and 10 days.
Brain lysates were prepared by homogenization of tumor-bearing brains in phosphate-buffered saline. Supernatants were collected by centrifugation at 12,000 rpm for 15 minutes at 4° C. Total protein concentration was measured by the BCA protein assay, and 100 μg of total protein was used to measure proteasome activity. The 20S proteasome assay kit (EMD Millipore) was used according to manufacturer's instructions. The assay is based on detection of fluorophore 7-amino-4-methylcoumarin (AMC) after cleavage from the labeled substrate LLVYAMC. The free AMC fluorescence was quantified using 380-nm excitation and 460-nm emission filters.

[10] = test system: intracranial glioma tumor; experiment: Histological investigation of tumor-bearing brains (H & E, TRA 1-85); format: in vivo, mice
Description: FIG. 6. […] Tumor-bearing animals were treated with intratumoral-administered bortezomib (A) or IV-administered-bortezomib (B). After 5 days the animals were euthanized, brains harvested, and stained with hematoxylin/eosin.
Tissues used for histological investigation were fixed in 10% formalin, embedded in paraffin, and stained with H & E. The antibody TRA-1-85/CD147 (RD Systems) was used to stain for human cells.

CC(C)C[C@H](NC(=O)[C@H](Cc1ccccc1)NC(=O)c1cnccn1)B(O)O [bortezomib, [(1R)-3-methyl-1-[[(2S)-3-phenyl-2-(pyrazine-2-carbonylamino)propanoyl]amino]butyl]boronic acid]
increase in survival ([1]; IT administration, median survival 23 to 37 days): approximately 40% | survival, IT vs IV (36 μg) ([1]; U251 intracranial, IT high dose 3.6 μg total, p=0.0022): significantly enhanced survival | survival, IT vs IV (36 μg) ([1]; U251 intracranial, IT low dose 0.36 μg total, p=0.1104): not significant | survival, IT vs IV (36 μg) ([1]; U251 intracranial, IT medium dose 1.2 μg total, p=0.0005): significantly enhanced survival | median survival time ([1]; U251 intracranial, high dose 3.6 μg total): 37 days | median survival time ([1]; U251 intracranial, medium dose 1.2 μg total): 34 days | survival vs vehicle ([1]; U251 intracranial, IV 0.3 mg/kg (36 μg total), 0.3 mg/kg): no significant differences in survival time; also recorded: not significant | cytotoxicity ([2]; glioma stem cells): cytotoxic | cytotoxicity ([2]; normal stem cells): not toxic | therapeutic benefit, Phase II trial ([3]; combination with tamoxifen, systemic, patients with malignant gliomas): no therapeutic benefit | benefit, Phase II clinical trial ([3]; combination with vorinostat, bortezomib IV, GBM): no benefit | pIC50 [4]: 8.00 to 8.30 | tumor growth rate / tumor progression [5]: delayed tumor progression | tumor growth rate / tumor progression ([5]; listed as Bortezomib): significantly (p=0.041) decreased tumor growth rate | tumor growth rate [6]: significantly effective in delaying tumor growth | tumor growth rate ([6]; listed as Bortezomib): significantly (p=0.0145) decreased tumor growth rate | survival vs vehicle [7]: no significant differences | toxicity ([8]; 7.2 μg): toxic and fatal | toxicity ([8]; 18.0 μg): toxic and fatal | toxicity ([8]; 36.0 μg): toxic and fatal | proteasome activity in tumor-bearing brain vs vehicle ([9]; 5 days, p=0.03): significantly reduced proteasome activity | proteasome activity in tumor-bearing brain vs vehicle ([9]; 7 days, p=0.03): significantly reduced proteasome activity | proteasome activity in tumor-bearing brain vs vehicle ([9]; 10 days, p=0.0048): significantly reduced proteasome activity | tumor size (surface area), IV-treated animal relative to intratumoral-treated animal ([10]; Day 5, IV 36 μg total vs IT 3.6 μg total, H & E): approximately ten-fold larger | tumor cell invasion into mouse brain, IV-treatment compared to IT-treated ([10]; anti-human antibody TRA 1-85 staining): greater tumor cell invasion | microvessel densities vs vehicle-treated mice ([10]; data not shown): not significantly different
